The results in this text go back to patent US20260159512A1, “BCAT2 INHIBITORS” (AGIOS PHARMACEUTICALS, INC., priority 2021, published 2026).

Values joined by “and” are separate entries in the source; they are usually repeats but may differ in a detail not shown here. Equal values may be shown once.

Broadly, the IC50 is the concentration needed to halve the response being measured.

What all share (settings): average where tested multiple times
For test [1], the target named is T1, BCAT2 (Homo sapiens, UniProt O15382).
T1 sequence (O15382 28-392): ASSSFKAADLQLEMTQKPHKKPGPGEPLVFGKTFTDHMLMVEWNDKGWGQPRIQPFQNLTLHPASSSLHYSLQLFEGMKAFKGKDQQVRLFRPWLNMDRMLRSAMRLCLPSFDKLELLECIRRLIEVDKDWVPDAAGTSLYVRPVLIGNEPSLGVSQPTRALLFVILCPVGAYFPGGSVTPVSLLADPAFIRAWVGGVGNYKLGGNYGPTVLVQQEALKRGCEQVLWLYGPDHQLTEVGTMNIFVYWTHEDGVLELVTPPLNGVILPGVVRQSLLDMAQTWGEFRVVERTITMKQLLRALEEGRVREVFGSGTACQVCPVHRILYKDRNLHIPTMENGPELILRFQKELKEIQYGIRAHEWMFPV
The test can be described thus: BCAT2 in vitro enzyme inhibition assay (resazurin/diaphorase-coupled fluorescence). The test is classed as biochemical. In a few lines: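 Coupled fluorescence readout: glutamate formed from L-leucine/α-ketoglutarate transamination drives GDH/NAD/diaphorase reduction of resazurin (Ex 540/Em 590). Human BCAT2 was first exposed 1 h at room temperature to compound, top final 100 μM in 3-fold, 10-point series; substrate reaction ran 1 h before SDS quench, in technical duplicate with DMSO max and enzyme-free min controls.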
In general terms: Alamar Blue is a resazurin reagent that responds to reducing activity.

The target of a further test is T2, hBCAT1 (Homo sapiens, UniProt P54687).
T2 sequence (P54687 1-386): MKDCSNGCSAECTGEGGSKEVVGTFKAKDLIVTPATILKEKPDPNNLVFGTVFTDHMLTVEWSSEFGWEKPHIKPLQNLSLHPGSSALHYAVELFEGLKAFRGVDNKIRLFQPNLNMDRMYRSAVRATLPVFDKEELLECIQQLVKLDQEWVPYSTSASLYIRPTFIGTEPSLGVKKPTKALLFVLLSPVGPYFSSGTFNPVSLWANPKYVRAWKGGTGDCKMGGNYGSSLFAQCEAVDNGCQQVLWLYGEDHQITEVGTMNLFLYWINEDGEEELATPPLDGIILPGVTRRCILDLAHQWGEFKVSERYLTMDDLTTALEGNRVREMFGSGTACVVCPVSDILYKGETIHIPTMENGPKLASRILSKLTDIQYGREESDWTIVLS
As to the kind of experiment: BCAT1 in vitro enzyme inhibition assay (resazurin/diaphorase-coupled fluorescence). The test is classed as biochemical. An outline of the steps:
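Human BCAT1 activity read by resazurin/diaphorase-coupled fluorescence. Compounds added from 50× DMSO stocks at 1:50, giving 10-point 3-fold titrations from 100 μM top final concentration. Run in technical duplicate; repeat tests averaged.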

Test [2] addresses T1, BCAT2. As to the kind of experiment: BCAT2 in vitro cell inhibition using engineered A549 cells (KMV cell assay, 13C6-KMV by LC-MS/MS). Also noted: The result was an engineered A549 cell line that expressed endogenous BCAT2; endogenous in cells; host or cells: A549 cells with MUT and BCAT1 knocked out by CRISPR/CAS9; key to BCAT2 Cell Inhibition: A: less than or equal to 0.100 μM; B: greater than 0.100 and less than or equal to 0.500 μM; C: greater than 0.500 and less than or equal to 1.000 μM; d: greater than 1.000 μM; E: no fit. The test is classed as cell-based.

Take `O=C(N[C@H]1CCC[C@@H](n2c(-c3ccccc3F)nc3cc(-n4ccnn4)ncc32)C1)c1ncc(C(F)F)s1` [Example 149, 5-(difluoromethyl)-N-((1S,3R)-3-(2-(2-fluorophenyl)-6-(1H-1,2,3-triazol-1-yl)-3H-imidazo[4,5-c]pyridin-3-yl)cyclohexyl)thiazole-2-carboxamide]: the IC50 is at most 0.1 µM at BCAT2 [1], 1 to 5 µM against hBCAT1 and 0.1 to 0.5 µM against BCAT2 [2].
Consider `O=C(N[C@H]1CCC[C@@H](n2c(-c3ccccn3)nc3cc(-n4ccnn4)ncc32)C1)c1ccc(Br)s1` [Example 152, 5-bromo-N-((1S,3R)-3-(2-(pyridin-2-yl)-6-(1H-1,2,3-triazol-1-yl)-3H-imidazo[4,5-c]pyridin-3-yl)cyclohexyl)thiophene-2-carboxamide], for which the IC50 on BCAT2 [1] was at most 0.1 µM; against hBCAT1 it was 0.5 to 1 µM; on BCAT2 [2], at most 0.1 µM.
`Cc1nc(-c2cc3c(cn2)nc(CC(C)C)n3[C@@H]2CCC[C@H](NC(=O)c3ncc(Cl)s3)C2)cs1` [Example 158, 5-chloro-N-((1S,3R)-3-(2-isobutyl-6-(2-methylthiazol-4-yl)-1H-imidazo[4,5-c]pyridin-1-yl)cyclohexyl)thiazole-2-carboxamide]: the IC50 is at most 0.1 µM at BCAT2 [1], 1 to 5 µM at hBCAT1 and above 1 µM on BCAT2 [2].
In the same order, the values of `CC(C)Cc1nc2cnc(-c3cscn3)cc2n1[C@@H]1CCC[C@H](NC(=O)c2ncc(Cl)s2)C1` [Example 159, 5-chloro-N-((1S,3R)-3-(2-isobutyl-6-(thiazol-4-yl)-1H-imidazo[4,5-c]pyridin-1-yl)cyclohexyl)thiazole-2-carboxamide] are at most 0.1 µM, below 0.5 µM and 0.1 to 0.5 µM.
On to `CC(C)Cc1nc2cnc(-c3cccc(F)n3)cc2n1[C@@H]1CCC[C@H](NC(=O)c2ncc(Cl)s2)C1` [Example 160, 5-chloro-N-((1S,3R)-3-(6-(6-fluoropyridin-2-yl)-2-isobutyl-1H-imidazo[4,5-c]pyridin-1-yl)cyclohexyl)thiazole-2-carboxamide], for which the figures for the IC50 against BCAT2 [1], at hBCAT1 and against BCAT2 [2] were at most 0.1 µM, 0.5 to 1 µM and 0.5 to 1 µM, respectively.
As for `Cc1cccnc1-c1cc2c(cn1)nc(-c1ccccc1F)n2[C@@H]1CCC[C@H](NC(=O)c2ncc(Cl)s2)C1` [Example 161, 5-chloro-N-((1S,3R)-3-(2-(2-fluorophenyl)-6-(3-methylpyridin-2-yl)-1H-imidazo[4,5-c]pyridin-1-yl)cyclohexyl)thiazole-2-carboxamide], the IC50 was at most 0.1 µM against BCAT2 [1], 1 to 5 µM against hBCAT1 and 0.1 to 0.5 µM at BCAT2 [2].
On the same counts, the results for `CC(C)(C)Cc1nc2cnc(-c3nc[nH]n3)cc2n1[C@@H]1CCC[C@H](NC(=O)c2ncc(Cl)s2)C1` [Example 162, 5-chloro-N-((1S,3R)-3-(2-neopentyl-6-(1H-1,2,4-triazol-3-yl)-1H-imidazo[4,5-c]pyridin-1-yl)cyclohexyl)thiazole-2-carboxamide] are at most 0.1 µM, below 0.5 µM and at most 0.1 µM.
In the case of `CC(C)Cc1nc2cnc(-c3nccs3)cc2n1[C@@H]1CCC[C@H](NC(=O)c2ncc(Cl)s2)C1` [Example 163, 5-chloro-N-((1S,3R)-3-(2-isobutyl-6-(thiazol-2-yl)-1H-imidazo[4,5-c]pyridin-1-yl)cyclohexyl)thiazole-2-carboxamide], the IC50 at BCAT2 [1] is at most 0.1 µM; at hBCAT1, below 0.5 µM; at BCAT2 [2], at most 0.1 µM.
Take `CC(C)Cc1nc2cnc(-c3ncnn3C)cc2n1[C@@H]1CCC[C@H](NC(=O)c2ncc(Cl)s2)C1` [Example 164, 5-chloro-N-((1S,3R)-3-(2-isobutyl-6-(1-methyl-1H-1,2,4-triazol-5-yl)-1H-imidazo[4,5-c]pyridin-1-yl)cyclohexyl)thiazole-2-carboxamide]: the concentration for half-maximal inhibition (IC50) on BCAT2 [1] was 0.1 to 0.5 µM and 0.5 to 1 µM; at hBCAT1, above 5 µM; against BCAT2 [2], 0.1 to 0.5 µM. In addition, the “BCAT2 Cell Inhibition” value on BCAT2 [2] is listed as “E”.
